Data as given in patent US8293736B2, “Purine compounds selective for PI3K P110 delta, and methods of use” (F. Hoffmann la Roche AG, priority 2010, dated 2012).

Key:
[1] = test system: production of CD69 by B lymphocytes in human whole blood; assay: CD69 Whole Blood Assay; assay type: cell-based; conditions: Lymphocyte; human whole blood activated with goat F(ab')2 anti-human IgM, 20 hours
Description: There is good evidence that B-cells play a key role in the pathogenesis of autoimmune and/or inflammatory disease. Protein-based therapeutics that deplete B cells such as Rituxan are effective against autoantibody-driven inflammatory diseases such as rheumatoid arthritis (Rastetter et al. (2004) Annu Rev Med 55:477). CD69 is the early activation marker in leukocytes including T cells, thymocytes, B cells, NK cells, neutrophils, and eosinophils. The CD69 human whole blood assay (Example 903) determines the ability of compounds to inhibit the production of CD69 by B lymphocytes in human whole blood activated by crosslinking surface IgM with goat F(ab′)2 anti-human IgM.
Human blood is obtained from healthy volunteers, with the following restrictions: 1 week drug-free, non-smokers. Blood (approximately 20 mls to test 8 compounds) is collected by venipuncture into Vacutainer tubes with sodium heparin.
Solutions of Formula I compounds at 1000 or 2000 μM in PBS (20×), are diluted by three-fold serial dilutions in 10% DMSO in PBS for a nine point dose-response curve. An aliquot of 5.5 μl of each compound is added in duplicate to a 2 ml 96-well plate; 5.5 μl of 10% DMSO in PBS is added as control and no-stimulus wells. Human whole blood—HWB (100 μl) is added to each well. After mixing the plates are incubated at 37° C., 5% CO2, 100% humidity for 30 minutes. Goat F(ab′)2 anti-human IgM (10 μl of a 500 μg/ml solution, 50 μg/ml final) is added to each well (except the no-stimulus wells) with mixing and the plates are incubated for an additional 20 hours. At the end of the 20 hour incubation, samples are incubated with fluorescent labeled antibodies for 30 minutes, at 37° C., 5% CO2, 100% humidity. Include induced control, unstained and single stains for compensation adjustments and initial voltage settings. Samples are then lysed with Pharmingen Lyse™ according to the manufacturer's instructions. Samples are then transferred to a 96 well plate suitable to be run on the AMS 96 well system on the BD Calibur FACS cell sorter instrument. Data acquired and Mean Fluorescence Intensity values were obtained using Cell Quest Software. Results are initially analyzed by FACS analysis software (Flow Jo). The IC50 values are calculated by ActivityBase™ using Xlfit™ version 3, equation 201.

p110 alpha = target: T1, p110 alpha (Homo sapiens, UniProt P42336); assay: PI3K isoform inhibition assay (fluorescence polarization), p110 alpha; assay type: biochemical; conditions: delta/alpha selectivity ratio
T1 construct: purchased Upstate Group, Millipore; Dundee, UK

p110 delta = target: T2, p110 delta (Homo sapiens, UniProt O00329); assay: PI3K isoform inhibition assay (fluorescence polarization), p110 delta; assay type: biochemical; conditions: Ki apparent, Morrison equation; 25 μM ATP, 10 μM PIP2
T2 construct: purchased Upstate Group, Millipore; Dundee, UK
T2 sequence (O00329 whole entry, canonical isoform): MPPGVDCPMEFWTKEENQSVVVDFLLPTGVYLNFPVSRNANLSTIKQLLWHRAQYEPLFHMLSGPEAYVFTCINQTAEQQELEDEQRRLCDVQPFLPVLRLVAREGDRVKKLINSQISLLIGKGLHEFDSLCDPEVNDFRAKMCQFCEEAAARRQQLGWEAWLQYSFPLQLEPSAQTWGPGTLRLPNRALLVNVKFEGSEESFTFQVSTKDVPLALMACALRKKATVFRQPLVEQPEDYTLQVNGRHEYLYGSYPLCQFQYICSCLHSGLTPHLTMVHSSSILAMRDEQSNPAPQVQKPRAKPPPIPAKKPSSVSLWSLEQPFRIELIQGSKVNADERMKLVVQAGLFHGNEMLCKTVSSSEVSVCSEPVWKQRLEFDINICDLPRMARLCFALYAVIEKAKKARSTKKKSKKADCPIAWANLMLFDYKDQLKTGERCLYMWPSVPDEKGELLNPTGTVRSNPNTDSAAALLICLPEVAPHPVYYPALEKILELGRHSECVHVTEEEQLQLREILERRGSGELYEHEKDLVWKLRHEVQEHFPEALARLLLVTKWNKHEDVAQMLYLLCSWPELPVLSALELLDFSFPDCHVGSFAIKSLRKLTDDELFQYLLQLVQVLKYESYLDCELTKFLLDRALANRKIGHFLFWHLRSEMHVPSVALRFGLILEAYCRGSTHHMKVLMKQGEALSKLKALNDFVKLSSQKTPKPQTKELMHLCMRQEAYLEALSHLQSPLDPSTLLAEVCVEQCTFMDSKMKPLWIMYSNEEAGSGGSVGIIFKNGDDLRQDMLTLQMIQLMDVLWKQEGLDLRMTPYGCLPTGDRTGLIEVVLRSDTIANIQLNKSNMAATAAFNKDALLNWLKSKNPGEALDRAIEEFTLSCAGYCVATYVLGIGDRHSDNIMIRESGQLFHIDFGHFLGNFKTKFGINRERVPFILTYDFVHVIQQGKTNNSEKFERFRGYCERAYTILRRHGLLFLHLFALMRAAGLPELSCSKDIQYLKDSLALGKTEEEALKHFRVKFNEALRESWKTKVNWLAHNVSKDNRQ
T2 sequence (P27986 whole entry partner, canonical isoform): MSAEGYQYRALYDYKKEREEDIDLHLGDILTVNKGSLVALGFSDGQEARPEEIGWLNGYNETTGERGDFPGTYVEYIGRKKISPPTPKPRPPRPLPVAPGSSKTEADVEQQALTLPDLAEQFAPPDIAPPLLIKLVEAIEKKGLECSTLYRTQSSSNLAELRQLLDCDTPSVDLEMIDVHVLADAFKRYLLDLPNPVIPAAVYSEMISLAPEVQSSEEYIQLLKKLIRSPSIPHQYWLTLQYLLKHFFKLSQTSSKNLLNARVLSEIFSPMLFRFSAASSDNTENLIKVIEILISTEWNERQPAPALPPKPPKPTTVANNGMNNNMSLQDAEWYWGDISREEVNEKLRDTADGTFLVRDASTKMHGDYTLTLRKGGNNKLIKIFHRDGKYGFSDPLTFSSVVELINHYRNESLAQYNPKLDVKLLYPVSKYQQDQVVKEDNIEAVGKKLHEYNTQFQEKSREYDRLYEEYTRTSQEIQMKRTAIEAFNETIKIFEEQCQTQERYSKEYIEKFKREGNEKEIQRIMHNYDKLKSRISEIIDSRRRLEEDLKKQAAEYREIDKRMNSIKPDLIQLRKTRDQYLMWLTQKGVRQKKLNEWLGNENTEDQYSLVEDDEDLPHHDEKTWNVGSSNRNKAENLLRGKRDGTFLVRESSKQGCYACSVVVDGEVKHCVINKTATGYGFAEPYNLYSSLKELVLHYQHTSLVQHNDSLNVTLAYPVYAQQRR

T1 sequence (P42336 whole entry, species assumed, canonical isoform): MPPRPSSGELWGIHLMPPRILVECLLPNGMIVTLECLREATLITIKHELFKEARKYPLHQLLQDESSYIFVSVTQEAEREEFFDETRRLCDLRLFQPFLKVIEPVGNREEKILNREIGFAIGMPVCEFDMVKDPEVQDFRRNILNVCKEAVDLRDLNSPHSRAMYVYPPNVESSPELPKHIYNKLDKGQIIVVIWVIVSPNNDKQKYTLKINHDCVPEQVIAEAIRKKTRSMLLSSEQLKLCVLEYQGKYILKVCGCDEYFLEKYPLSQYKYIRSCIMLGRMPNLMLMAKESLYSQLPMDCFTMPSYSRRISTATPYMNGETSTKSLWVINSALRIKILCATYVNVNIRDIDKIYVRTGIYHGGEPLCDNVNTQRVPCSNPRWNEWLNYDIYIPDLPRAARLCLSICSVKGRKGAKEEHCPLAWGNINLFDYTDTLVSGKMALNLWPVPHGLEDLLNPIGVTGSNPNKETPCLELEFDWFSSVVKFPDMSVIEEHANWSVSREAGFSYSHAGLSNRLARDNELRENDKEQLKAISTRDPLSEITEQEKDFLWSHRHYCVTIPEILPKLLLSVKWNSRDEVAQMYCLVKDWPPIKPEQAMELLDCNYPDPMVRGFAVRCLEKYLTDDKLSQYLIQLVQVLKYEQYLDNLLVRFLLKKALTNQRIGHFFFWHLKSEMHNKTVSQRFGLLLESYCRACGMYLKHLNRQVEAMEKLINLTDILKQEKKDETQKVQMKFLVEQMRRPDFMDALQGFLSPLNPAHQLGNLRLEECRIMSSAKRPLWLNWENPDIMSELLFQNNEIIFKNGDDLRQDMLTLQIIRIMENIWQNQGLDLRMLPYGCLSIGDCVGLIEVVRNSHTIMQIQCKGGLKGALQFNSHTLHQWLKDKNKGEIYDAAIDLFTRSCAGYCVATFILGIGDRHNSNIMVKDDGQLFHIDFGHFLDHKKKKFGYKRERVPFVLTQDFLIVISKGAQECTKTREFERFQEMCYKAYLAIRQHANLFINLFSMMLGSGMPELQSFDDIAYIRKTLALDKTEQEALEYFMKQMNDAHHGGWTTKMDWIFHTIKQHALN
T1 sequence (P27986 whole entry partner, species assumed, canonical isoform): as the sequence (P27986 whole entry partner, canonical isoform) above

| Compound | IC50 [1] [nM] | Ki p110 alpha/ Ki p110 delta (p110 alpha) | Ki (p110 delta) [nM] |
| --- | --- | --- | --- |
| CC(C)c1nc2ccccc2n1-c1nc(N2CCOCC2)c2nc(OC3CN(CC(C)(C)O)C3)n(C)c2n1 [Compound 105, 1-(3-(2-(2-isopropyl-1H-benzo[d]imidazol-1-yl)-9-methyl-6-morpholino-9H-purin-8-yloxy)azetidin-1-yl)-2-methylpropan-2-ol] | 28.1 | 93 | 2.03 |
| CCc1nc2ccccc2n1-c1nc(N2CCOCC2)c2nc(OC3CN(C(=O)C(C)C)C3)[nH]c2n1 [Compound 128, 1-(3-(2-(2-ethyl-1H-benzo[d]imidazol-1-yl)-6-morpholino-9H-purin-8-yloxy)azetidin-1-yl)-2-methylpropan-1-one] | 15.9 | 141 | 0.629 |
